We go through 15 molecules from ChEMBL document CHEMBL5291721, “A preclinical secondary pharmacology resource illuminates target-adverse drug reaction associations of marketed drugs” (Nat Commun, 2023).

In assay [1] the target is T1, Adenosine receptor A1 (Homo sapiens, UniProt P30542).
T1 sequence (P30542 whole entry): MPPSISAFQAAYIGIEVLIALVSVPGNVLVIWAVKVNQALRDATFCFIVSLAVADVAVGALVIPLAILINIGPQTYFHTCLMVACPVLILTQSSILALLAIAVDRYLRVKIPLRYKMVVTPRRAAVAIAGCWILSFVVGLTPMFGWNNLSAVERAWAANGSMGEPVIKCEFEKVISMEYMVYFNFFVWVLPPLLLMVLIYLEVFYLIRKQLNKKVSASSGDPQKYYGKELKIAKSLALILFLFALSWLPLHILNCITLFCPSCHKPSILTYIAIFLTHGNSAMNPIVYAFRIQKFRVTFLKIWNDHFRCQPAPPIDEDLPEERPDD

Assay [2] concerns the target Beta-1 adrenergic receptor (Homo sapiens, UniProt P08588). It is filed as functional.
The target in assay [3] is 3',5'-cyclic-AMP phosphodiesterase 4D (Homo sapiens, UniProt Q08499). It counts as functional.
Sequence of 3',5'-cyclic-AMP phosphodiesterase 4D (Q08499 whole entry): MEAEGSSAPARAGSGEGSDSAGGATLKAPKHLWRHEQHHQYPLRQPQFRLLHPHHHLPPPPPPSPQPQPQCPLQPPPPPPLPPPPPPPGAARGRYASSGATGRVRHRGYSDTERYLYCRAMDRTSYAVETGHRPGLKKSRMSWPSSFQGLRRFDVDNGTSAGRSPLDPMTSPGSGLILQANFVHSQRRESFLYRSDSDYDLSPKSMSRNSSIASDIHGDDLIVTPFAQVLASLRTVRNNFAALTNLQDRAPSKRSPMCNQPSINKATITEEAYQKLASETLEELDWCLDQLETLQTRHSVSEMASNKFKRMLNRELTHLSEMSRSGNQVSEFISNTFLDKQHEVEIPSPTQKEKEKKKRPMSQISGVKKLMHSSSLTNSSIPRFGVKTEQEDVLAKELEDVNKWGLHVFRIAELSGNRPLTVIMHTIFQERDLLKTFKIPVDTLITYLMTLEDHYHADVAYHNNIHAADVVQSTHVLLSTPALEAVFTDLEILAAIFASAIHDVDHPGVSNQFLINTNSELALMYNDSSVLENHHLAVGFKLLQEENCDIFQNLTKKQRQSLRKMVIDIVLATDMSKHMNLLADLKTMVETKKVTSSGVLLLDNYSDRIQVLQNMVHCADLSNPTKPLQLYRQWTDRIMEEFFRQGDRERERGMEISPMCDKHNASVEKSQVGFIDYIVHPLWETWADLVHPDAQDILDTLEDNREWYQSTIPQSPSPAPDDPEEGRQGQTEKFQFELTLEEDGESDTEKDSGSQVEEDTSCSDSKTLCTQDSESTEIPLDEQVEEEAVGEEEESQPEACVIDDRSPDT
Assay [4] has as its target T2, Gastrin/cholecystokinin type B receptor (Homo sapiens, UniProt P32239).
T2 sequence (P32239 whole entry): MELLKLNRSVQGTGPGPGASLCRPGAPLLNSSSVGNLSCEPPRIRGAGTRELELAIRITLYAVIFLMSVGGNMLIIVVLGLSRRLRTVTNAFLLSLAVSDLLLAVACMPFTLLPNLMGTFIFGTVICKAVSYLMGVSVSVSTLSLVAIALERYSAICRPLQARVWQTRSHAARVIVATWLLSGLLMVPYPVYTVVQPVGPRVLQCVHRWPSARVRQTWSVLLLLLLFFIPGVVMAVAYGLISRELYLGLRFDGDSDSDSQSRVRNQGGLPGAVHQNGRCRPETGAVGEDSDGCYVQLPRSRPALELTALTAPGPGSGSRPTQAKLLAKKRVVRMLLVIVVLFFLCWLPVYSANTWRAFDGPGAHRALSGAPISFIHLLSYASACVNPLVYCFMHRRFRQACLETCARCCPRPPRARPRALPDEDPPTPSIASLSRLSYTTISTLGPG

Assay [5] deals with Vasopressin V2 receptor (Homo sapiens, UniProt P30518).
Sequence of Vasopressin V2 receptor (P30518 whole entry): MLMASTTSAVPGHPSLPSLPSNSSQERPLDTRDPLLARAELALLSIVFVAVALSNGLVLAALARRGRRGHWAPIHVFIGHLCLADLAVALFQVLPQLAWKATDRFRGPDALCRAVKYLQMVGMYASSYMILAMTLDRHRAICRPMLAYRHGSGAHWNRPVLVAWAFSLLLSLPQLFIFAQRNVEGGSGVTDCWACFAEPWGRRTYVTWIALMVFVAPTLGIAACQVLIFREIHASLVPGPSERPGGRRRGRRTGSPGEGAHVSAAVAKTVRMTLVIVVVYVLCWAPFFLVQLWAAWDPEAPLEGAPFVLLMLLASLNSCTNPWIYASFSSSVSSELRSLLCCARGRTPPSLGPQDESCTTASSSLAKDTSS
Assay [6] addresses T3, Thromboxane A2 receptor (Homo sapiens, UniProt P21731).
T3 sequence (P21731 whole entry): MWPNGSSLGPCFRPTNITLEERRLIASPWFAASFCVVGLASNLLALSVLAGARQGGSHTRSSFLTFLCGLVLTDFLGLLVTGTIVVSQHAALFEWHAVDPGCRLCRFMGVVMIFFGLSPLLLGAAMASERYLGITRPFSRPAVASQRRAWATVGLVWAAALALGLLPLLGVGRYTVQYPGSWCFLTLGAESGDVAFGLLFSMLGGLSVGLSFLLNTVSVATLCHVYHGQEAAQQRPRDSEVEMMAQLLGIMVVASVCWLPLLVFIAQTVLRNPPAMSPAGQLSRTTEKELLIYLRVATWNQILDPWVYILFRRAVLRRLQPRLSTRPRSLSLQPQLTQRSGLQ

The target of assay [7] is T4, 5-hydroxytryptamine receptor 1A (Homo sapiens, UniProt P08908).
T4 sequence (P08908 whole entry): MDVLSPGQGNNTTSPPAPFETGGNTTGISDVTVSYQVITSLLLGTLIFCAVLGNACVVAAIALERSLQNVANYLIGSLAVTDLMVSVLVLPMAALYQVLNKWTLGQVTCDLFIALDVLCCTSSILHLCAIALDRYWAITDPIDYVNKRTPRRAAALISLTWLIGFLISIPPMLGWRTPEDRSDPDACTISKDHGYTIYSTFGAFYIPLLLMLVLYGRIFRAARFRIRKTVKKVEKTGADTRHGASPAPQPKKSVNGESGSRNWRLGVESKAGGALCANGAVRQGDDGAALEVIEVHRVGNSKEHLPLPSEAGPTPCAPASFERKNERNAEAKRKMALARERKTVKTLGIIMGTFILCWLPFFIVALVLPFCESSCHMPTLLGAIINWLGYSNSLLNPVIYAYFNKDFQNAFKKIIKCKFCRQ
It counts as functional, cell-based.

Assay [8] addresses T5, Muscarinic acetylcholine receptor M2 (Homo sapiens, UniProt P08172).
T5 sequence (P08172 whole entry): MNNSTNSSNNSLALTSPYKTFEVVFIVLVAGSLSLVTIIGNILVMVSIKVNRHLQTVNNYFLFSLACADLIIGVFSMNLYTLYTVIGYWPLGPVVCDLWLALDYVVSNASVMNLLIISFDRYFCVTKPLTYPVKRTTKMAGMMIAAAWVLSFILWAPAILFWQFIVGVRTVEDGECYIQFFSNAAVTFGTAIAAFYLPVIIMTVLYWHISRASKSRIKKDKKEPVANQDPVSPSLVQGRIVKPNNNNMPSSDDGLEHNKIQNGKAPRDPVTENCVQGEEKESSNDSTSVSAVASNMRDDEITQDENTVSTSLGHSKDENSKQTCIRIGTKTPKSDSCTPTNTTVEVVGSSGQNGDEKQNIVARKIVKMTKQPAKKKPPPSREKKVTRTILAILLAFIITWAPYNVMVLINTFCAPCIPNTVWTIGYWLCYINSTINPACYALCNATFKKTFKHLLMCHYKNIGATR
It counts as functional, cell-based.

The target in assay [9] is Neuronal acetylcholine receptor subunit alpha-4 (Homo sapiens, UniProt P43681).
Sequence of Neuronal acetylcholine receptor subunit alpha-4 (P43681 whole entry): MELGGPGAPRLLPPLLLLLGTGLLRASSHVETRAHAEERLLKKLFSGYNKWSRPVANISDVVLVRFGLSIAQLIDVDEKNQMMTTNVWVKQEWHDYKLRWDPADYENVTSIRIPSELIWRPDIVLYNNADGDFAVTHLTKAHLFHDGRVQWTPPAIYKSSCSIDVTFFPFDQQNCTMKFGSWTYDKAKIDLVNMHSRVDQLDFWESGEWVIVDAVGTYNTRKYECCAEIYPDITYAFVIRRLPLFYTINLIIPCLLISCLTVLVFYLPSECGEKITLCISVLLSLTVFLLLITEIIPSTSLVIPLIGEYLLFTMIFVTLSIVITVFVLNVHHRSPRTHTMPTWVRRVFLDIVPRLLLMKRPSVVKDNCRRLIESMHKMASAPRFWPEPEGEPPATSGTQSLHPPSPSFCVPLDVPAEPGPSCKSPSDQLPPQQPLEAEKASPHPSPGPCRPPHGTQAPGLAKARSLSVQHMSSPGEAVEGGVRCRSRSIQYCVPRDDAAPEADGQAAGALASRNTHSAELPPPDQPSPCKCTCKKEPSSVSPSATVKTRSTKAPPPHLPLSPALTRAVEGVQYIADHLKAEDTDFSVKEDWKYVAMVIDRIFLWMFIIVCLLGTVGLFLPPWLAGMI
The target of assay [10] is cGMP-inhibited 3',5'-cyclic phosphodiesterase 3A (Homo sapiens, UniProt Q14432). It is filed as functional.
Sequence of cGMP-inhibited 3',5'-cyclic phosphodiesterase 3A (Q14432 whole entry): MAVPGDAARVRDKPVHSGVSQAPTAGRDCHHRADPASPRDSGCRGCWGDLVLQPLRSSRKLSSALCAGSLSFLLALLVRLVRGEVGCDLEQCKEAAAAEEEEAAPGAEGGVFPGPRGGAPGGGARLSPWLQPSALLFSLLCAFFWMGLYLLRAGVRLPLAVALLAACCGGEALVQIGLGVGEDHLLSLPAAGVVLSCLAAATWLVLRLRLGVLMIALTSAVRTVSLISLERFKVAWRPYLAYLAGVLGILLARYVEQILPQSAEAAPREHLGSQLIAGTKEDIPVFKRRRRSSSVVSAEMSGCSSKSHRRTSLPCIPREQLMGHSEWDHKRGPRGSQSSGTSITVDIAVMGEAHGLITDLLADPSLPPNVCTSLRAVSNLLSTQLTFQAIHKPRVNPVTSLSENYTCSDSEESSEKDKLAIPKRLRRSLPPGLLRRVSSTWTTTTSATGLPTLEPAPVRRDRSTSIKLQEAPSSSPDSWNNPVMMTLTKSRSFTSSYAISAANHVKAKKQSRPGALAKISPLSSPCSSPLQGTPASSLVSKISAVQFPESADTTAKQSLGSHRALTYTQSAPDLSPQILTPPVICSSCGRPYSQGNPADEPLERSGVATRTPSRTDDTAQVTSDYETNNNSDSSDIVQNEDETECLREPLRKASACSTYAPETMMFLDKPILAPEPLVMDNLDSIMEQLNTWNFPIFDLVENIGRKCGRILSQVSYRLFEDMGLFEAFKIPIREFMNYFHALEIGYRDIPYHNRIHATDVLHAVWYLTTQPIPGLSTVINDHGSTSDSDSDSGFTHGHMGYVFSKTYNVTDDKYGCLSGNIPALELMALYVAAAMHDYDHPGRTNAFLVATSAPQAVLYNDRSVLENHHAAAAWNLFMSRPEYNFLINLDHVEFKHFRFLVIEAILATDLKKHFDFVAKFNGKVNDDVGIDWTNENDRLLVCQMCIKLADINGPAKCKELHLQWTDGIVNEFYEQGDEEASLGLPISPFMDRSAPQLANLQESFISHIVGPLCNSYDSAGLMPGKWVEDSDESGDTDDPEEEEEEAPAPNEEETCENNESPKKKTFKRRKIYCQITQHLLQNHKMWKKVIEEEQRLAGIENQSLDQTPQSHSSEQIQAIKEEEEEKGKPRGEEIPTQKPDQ
Further: assay procedure not described here.

Sequence of Beta-1 adrenergic receptor (P08588 whole entry): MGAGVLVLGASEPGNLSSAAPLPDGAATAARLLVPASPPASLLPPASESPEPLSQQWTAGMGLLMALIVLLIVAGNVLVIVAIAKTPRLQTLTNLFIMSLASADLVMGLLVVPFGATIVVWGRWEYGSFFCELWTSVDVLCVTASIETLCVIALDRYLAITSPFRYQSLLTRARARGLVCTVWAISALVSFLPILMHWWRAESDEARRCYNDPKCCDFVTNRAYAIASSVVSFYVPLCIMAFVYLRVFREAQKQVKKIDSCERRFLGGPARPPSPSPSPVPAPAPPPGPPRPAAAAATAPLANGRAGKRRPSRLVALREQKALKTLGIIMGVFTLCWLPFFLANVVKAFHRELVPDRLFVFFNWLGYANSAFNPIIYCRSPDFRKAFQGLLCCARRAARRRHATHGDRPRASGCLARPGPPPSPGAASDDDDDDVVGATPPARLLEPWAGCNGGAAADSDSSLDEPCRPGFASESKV

On to `CC1=C(CC(=O)O)c2cc(F)ccc2/C1=C\c1ccc([S+](C)[O-])cc1` (stereo not given), for which the AC50 in [1] is > 30 µM; in assay [2], > 10 µM; in [3], > 30 µM; in assay [4] it was > 30 µM; in assay [5] it was > 30 µM; in assay [6], > 30 µM. The AC50 in [7] is > 10 µM; in assay [8] it was > 10 µM; in assay [9], > 10 µM; in assay [10], > 30 µM.

Take `COc1cc(N)cn[n+]1-c1ccccc1` [AMEZINIUM METILSULFATE]: the AC50 in assay [1], in [2], in assay [3], in [4], in assay [5] and in assay [6] was > 30 µM throughout. Besides, the AC50 in assay [7] is > 30 µM; in assay [8] it was > 30 µM; in assay [9], > 10 µM; in [10], > 30 µM.

As for `COc1ccc(-n2nc(C(N)=O)c3c2C(=O)N(c2ccc(N4CCCCC4=O)cc2)CC3)cc1` [APIXABAN], the AC50 in assay [1], in assay [2], in assay [3], in [4], in [5] and in assay [7] was > 30 µM in each case. For the same molecule, the AC50 in assay [8], in assay [9] and in [10] was > 30 µM each time.

As for `CNCCc1ccccn1` [BETAHISTINE], the AC50 in assay [1], in [3], in assay [4], in assay [5], in assay [6] and in assay [7] was > 30 µM in each case. The AC50 in assay [8], in [9] and in [10] was > 30 µM in each case.

Consider `CC(NC(C)(C)C)C(=O)c1cccc(Cl)c1` (stereo not given) [BUPROPION], for which the AC50 in assay [1] was > 30 µM; in [2] it was > 10 µM; in assay [4], > 30 µM; in assay [5], > 30 µM; in assay [6], > 30 µM; in [7], > 10 µM. In assay [8], the AC50 was > 10 µM.

Regarding `CO/N=C(\C(=O)N[C@@H]1C(=O)N2C(C(=O)[O-])=C(C[n+]3ccc(N)n3CCO)CS[C@H]12)c1csc(N)n1` [CEFOSELIS], the AC50 in [1], in assay [2], in assay [3], in assay [4], in assay [5] and in [6] was > 30 µM in each case. The AC50 in assay [7], in [8], in [9] and in assay [10] was > 30 µM in each case.

With `CC(=O)OCC1=C(C(=O)O)N2C(=O)[C@@H](NC(=O)Cc3cccs3)[C@H]2SC1` [CEPHALOTHIN], the AC50 in assay [1], in assay [2], in assay [3], in assay [4], in assay [5] and in assay [7] was > 30 µM in each case. For the same molecule, the AC50 in [8], in assay [9] and in assay [10] was > 30 µM each time.

`CC(=O)OCC1=C(C(=O)O)N2C(=O)[C@@H](NC(=O)CSc3ccncc3)[C@H]2SC1` [CEPHAPIRIN]: the AC50 in [1] was > 10 µM; in assay [2], > 10 µM; in [3] it was > 30 µM; in assay [5], > 10 µM; in assay [6], > 10 µM; in [7], > 10 µM. Besides, the AC50 is > 10 µM in assay [8], > 10 µM in [9] and > 30 µM in [10].

For `CCCCCCOC(=O)NC(=N)c1ccc(NCc2nc3cc(C(=O)N(CCC(=O)OCC)c4ccccn4)ccc3n2C)cc1` [DABIGATRAN ETEXILATE], the AC50 in [1], in assay [2], in [3], in assay [4], in assay [5] and in assay [7] was > 30 µM throughout. The AC50 in assay [8], in assay [9] and in [10] was > 30 µM in each case.

`CC(=O)Oc1cccc2c1C(=O)c1c(OC(C)=O)cc(C(=O)O)cc1C2=O` [DIACEREIN]: the AC50 in assay [1] was 24 µM; in assay [2], > 30 µM; in assay [3], 8.8 µM; in assay [4] it was > 30 µM; in assay [5], > 30 µM; in assay [6], > 30 µM. Further, the AC50 is 18 µM in assay [7], 12 µM in assay [8], 27 µM in assay [9] and > 30 µM in assay [10].

Turning to `CCc1ccc(C(=O)C(C)CN2CCCCC2)cc1` (stereo not given) [EPERISONE], the AC50 in [1], in [2], in [3], in assay [4], in assay [5] and in [6] was > 30 µM throughout. Also, the AC50 in [7], in assay [8], in [9] and in [10] was > 30 µM throughout.

Regarding `CCC(NC(C)C)C(O)c1ccc(O)c(O)c1` (stereo not given) [ISOETHARINE], the AC50 in assay [1], in [3], in assay [4], in assay [5], in assay [6] and in assay [7] was > 30 µM in each case. Besides, the AC50 in assay [8], in [9] and in assay [10] was > 30 µM throughout.

As for `CCN(CC)CC(=O)Nc1c(C)cccc1C` [LIDOCAINE], the AC50 is > 30 µM in assay [1]; > 10 µM in assay [3]; > 30 µM in assay [4]; > 30 µM in assay [5]; > 30 µM in assay [6]; > 10 µM in assay [10].

For `COC(=O)c1ccc2c(c1)NC(=O)/C2=C(\Nc1ccc(N(C)C(=O)CN2CCN(C)CC2)cc1)c1ccccc1` [NINTEDANIB], the AC50 in [1], in assay [2], in [3], in assay [4], in assay [5] and in assay [7] was > 30 µM each time. The AC50 in assay [8], in [9] and in assay [10] was > 30 µM in each case.

Turning to `Nc1ccc(S(=O)(=O)Nc2ncccn2)cc1` [SULFADIAZINE], the AC50 is > 10 µM in [1]; > 10 µM in [2]; > 30 µM in [3]; > 10 µM in assay [5]; > 10 µM in [6]; > 10 µM in assay [7]. Also, the AC50 in [8] was > 10 µM; in [9], > 10 µM; in [10], > 30 µM.

Broadly, the AC50 is the concentration giving half of the maximal activity seen. The low end stands for greater potency, the high end for weaker potency.
